Measurements taken from patent US11712473B2, “Sensitizer-peptide conjugate” (UNIVERSITY OF ULSTER, priority 2017, dated 2023).
Entries after “also recorded” stand apart in the source; their conditions may differ. RB = Rose Bengal carboxylic acid derivative, attached to the N-terminus

Tests used:
[1] = test system: B16-F10-Luc2 melanoma cells; assay: SDT of B16 melanoma cells, MTT cell viability assay; format: cell-based, murine; details: 2.5, 5.0, 10 μM, 3 hours incubation, ultrasound, viability 24 hours later
[2] = test system: PANC-1 epithelioid carcinoma cells; assay: PDT of PANC-1 pancreatic cancer cells, MTT cell viability assay; format: cell-based, Human; details: 0.05, 0.1, 0.5, 1 μM, 3 h incubation, white light 1 min (22.8 J/cm^2), viability 24 h later
Protocol: (§1) Human PANC-1 epithelioid carcinoma cells were maintained Dulbecco's Modified Eagle Media (DMEM) supplemented with 10% foetal bovine serum (FBS) and 1% penicillin streptomycin. The cells were incubated at 37° C. in a humidified 5% (v/v) CO2 atmosphere. Cells were seeded at a concentration of 5×10^3 cells per well in 96-well tissue culture plate for 24 hours. The medium was removed from each well and the cells incubated for 3 h with drug (100 μL) at concentrations of 0.05 μM, 0.1 μM, 0.5 μM and 1 μM in media. The drug solution was then removed and the cells washed twice with PBS, fresh media was added and selected wells exposed to white light for 1 min (22.8 J/cm^2). Fresh media was then added to each of the wells and cell viability determined 24 h later using a MTT assay. Each experiment was repeated on 3 separate occasions with an n=6 on each occasion.

[3] = test system: B16-F10-Luc2 melanoma cells; assay: PDT of B16 melanoma cells, MTT cell viability assay; format: cell-based, murine; details: 2.5, 5.0, 10 μM, 3 h incubation, white light 1 min (22.8 J/cm^2), viability 24 h later
Protocol: (§2) Murine melanoma B16-F10 Luc-2 cells were maintained Dulbecco's Modified Eagle Media (DMEM) supplemented with 10% foetal bovine serum (FBS) and 1% penicillin streptomycin. The cells were incubated at 37° C. in a humidified 5% (v/v) CO2 atmosphere. Cells were seeded at a concentration of 4×10^3 cells per well in 96-well tissue culture plate for 24 hours. The medium was removed from each well and the cells incubated for 3 h with drug (100 μL) at concentrations of 2.5 μM, 5.0 μM and 10 μM in media. The drug solution was then removed and selected wells exposed to white light for 1 min (22.8 J/cm^2). Fresh media was then added to each of the wells and cell viability determined 24 h later using a MTT assay. Each experiment was repeated on 3 separate occasions with an n=6 on each occasion.

[4] = test system: B16-F10-Luc2 melanoma cells; assay: PDT of B16 melanoma cells, bioluminescent assay; format: cell-based, murine; details: 2.5, 5.0, 10 μM plus white light (22.8 J/cm^2)
Protocol: as §2
For the bioluminescent assay, imaging was undertaken using a Xenogen IVIS-100 bioluminescence/fluorescence optical imaging system. Treatments were performed as described above. D-Luciferin at 1.5% w/w was then added to treated wells and bioluminescence intensity was quantified 5 min later using the IVIS-100 system and Living Image Software as per protocol (Caliper LifeSciences). Regions of interest (RoI) were drawn around the wells to evaluate the intensity of signal emitted and expressed photons/second (p/s).

[5] = test system: MCF-7 invasive breast ductal carcinoma cells; assay: PDT of MCF-7 breast cancer cells, MTT cell viability assay; format: cell-based, Human; details: 0.05, 0.1, 0.5, 1 μM, 3 h incubation, white light 1 min (22.8 J/cm^2), viability 24 h later
Protocol: as §1, with “MCF-7 invasive breast ductal” for “PANC-1 epithelioid”

[6] = test system: B16-F10-Luc2 melanoma tumour; assay: PDT of B16 melanoma tumour growth in a mouse model (Example 5); format: in vivo, SCID mice; details: for tumour growth / tumour size, as part of PDT: 100 μL of 100 μM by tail vein injection, white light 3 min (68.4 J/cm^-2) 30 minutes later, retreated days 1, 2, 7, 9
Protocol: (§3) In these studies all animals were treated humanely and in accordance with licensed procedures under the UK Animals (Scientific Procedures) Act 1986. B16-F10-Luc2 cells (3×10^5) maintained as described in Example 3, were re-suspended in 100 μL of PBS and implanted into the rear dorsum of SCID mice. Four days after implantation tumour measurements were taken using calipers and tumour volume calculated from the geometric mean diameter using the equation: tumour volume=4πR^3/3. The animals were then randomly distributed into four groups (n=5): Group 1 involved untreated animals; Group 2 treated with the RB-(KLAKLAK)2 (SEQ ID NO. 1) conjugate and no light; Group 3 treated with the RB-(KLAKLAK)2 (SEQ ID NO. 1) conjugate and light; Group 4 treated with RB and light. Following induction of anaesthesia (intraperitoneal injection of Hypnorm/Hypnovel), a 100 μL aliquot of PBS containing 100 μM RB or the RB-(KLAKLAK)2 (SEQ ID NO. 1) conjugate was administered by tail vein injection. Group 3 and Group 4: 30 minutes later tumours were exposed to white light for 3 min (68.4 J/cm^−2). After treatment, animals were allowed to recover from anaesthesia and tumour volume was monitored for 12 days with animals retreated using the same conditions on days 1, 2, 7 and 9. The % increase in tumour volume was calculated employing the pre-treatment measurements for each group. On day 13, the animals were euthanized and the tumours were removed for analysis.

[7] = test system: B16-F10-Luc2 melanoma tumour; assay: PDT and SDT treatment of ectopic B16 melanoma tumours in SCID mice (Example 6); format: in vivo; details: 100 μL of 100 μM by tail vein injection
Protocol: as §3, with “B16-F10-Luc2 cells” for “In these studies all animals were treated humanely and in accordance with licensed procedures under the UK Animals (Scientific Procedures) Act 1986. B16-F10-Luc2 cells”, “treated with the RB-(KLAKLAK)2 (SEQ ID NO. 1) conjugate and SDT, and Group 5 treated with RB and” for “treated with RB and”, “and Group 5: 30 minutes” for “and Group 4: 30 minutes”, “(68.4 J/cm^−2). […] After treatment,” for “(68.4 J/cm^−2). After treatment,”, “each group. […]” for “each group. On day 13, the animals were euthanized and the tumours were removed for analysis.”

Substance: RB-C(KLAKLAK)2: conjugate of Rose Bengal and peptide Cys-Lys-Leu-Ala-Lys-Leu-Ala-Lys-Lys-Leu-Ala-Lys-Leu-Ala-Lys (SEQ ID NO: 2) ({RB}-CKLAKLAKKLAKLAK-NH2; also: Rose Bengal conjugate, site not given here)
- cell viability (MTT), cell killing as part of SDT [1]: effectively killed B16-F10-Luc2 melanoma cells
- cell viability (MTT), cell killing as part of PDT [2]: effectively killed PANC-1 epithelioid carcinoma cells
- cell viability (MTT), cytotoxic effect as part of PDT [3]: significantly better than photodynamic therapy using Rose Bengal alone; also recorded: effectively killed B16-F10-Luc2 melanoma cells
- cell viability (MTT), cytotoxic effect as part of PDT ([3]; listed as RB-C(KLAKLAK)2 L enantiomer): more potent cytotoxic effect than the RB-C(KLAKLAK)2 (SEQ ID NO. 2) D enantiomer
- bioluminescent intensity relative to the control [4]: significant reduction in bioluminescence
- cell viability (MTT), cell killing as part of PDT [5]: effectively killed MCF-7 invasive breast ductal carcinoma cells
- tumour growth / tumour size, as part of PDT [6]: effectively reduced B16-F10-Luc2 melanoma tumour growth; also recorded: inhibited tumour growth to a greater extent
- tumour growth / tumour size, as part of PDT ([6]; listed as conjugate of Rose Bengal and a peptide having the amino acid sequence defined by): significant reduction in tumour size
- tumour growth, as part of SDT ([6]; as stated in the result sentence of Example 5): effectively reduced B16-F10-Luc2 melanoma tumour growth

Substance: RB-C(KLAKLAK): conjugate of Rose Bengal and peptide Cys-Lys-Leu-Ala-Lys-Leu-Ala-Lys (SEQ ID NO: 6) ({RB}-CKLAKLAK-NH2; not fully specified)
- cell viability (MTT), cell killing as part of PDT [2]: effectively killed PANC-1 epithelioid carcinoma cells
- cell viability (MTT), cell killing as part of PDT [5]: effectively killed MCF-7 invasive breast ductal carcinoma cells

Substance: RB-(KLAKLAK)2: conjugate of Rose Bengal and all-D peptide Lys-Leu-Ala-Lys-Leu-Ala-Lys-Lys-Leu-Ala-Lys-Leu-Ala-Lys (SEQ ID NO: 1), no cysteine (KLAKLAKKLAKLAK; not fully specified; Rose Bengal conjugate; all-D amino acids)
- tumour growth, as part of SDT ([7]; ultrasound 3.5 min, 3 W cm-2, 1 MHz, duty cycle 30%): effectively reduced B16-F10-Luc2 melanoma tumour growth
- tumour growth, as part of PDT ([7]; white light 3 min (68.4 J/cm^-2) 30 minutes later): effectively reduced B16-F10-Luc2 melanoma tumour growth; also recorded: PDT was superior
